Source: patent publication US20260191968A1, “PROTAC DEGRADERS OF MLLT1 AND/OR MLLT3” (DARK BLUE THERAPEUTICS LTD, priority 2024, published 2026)

Columns and labels:
MLLT1 = target: T1, MLLT1 (Homo sapiens, UniProt Q03111); assay: MLLT1 degradation assay in MV4-11 cells (JESS chemiluminescent detection), three concentrations, 24 h; format: cell-based; settings: with respect to DMSO control
T1 construct: host or cells: MV4-11
T1 sequence (Q03111 1-559): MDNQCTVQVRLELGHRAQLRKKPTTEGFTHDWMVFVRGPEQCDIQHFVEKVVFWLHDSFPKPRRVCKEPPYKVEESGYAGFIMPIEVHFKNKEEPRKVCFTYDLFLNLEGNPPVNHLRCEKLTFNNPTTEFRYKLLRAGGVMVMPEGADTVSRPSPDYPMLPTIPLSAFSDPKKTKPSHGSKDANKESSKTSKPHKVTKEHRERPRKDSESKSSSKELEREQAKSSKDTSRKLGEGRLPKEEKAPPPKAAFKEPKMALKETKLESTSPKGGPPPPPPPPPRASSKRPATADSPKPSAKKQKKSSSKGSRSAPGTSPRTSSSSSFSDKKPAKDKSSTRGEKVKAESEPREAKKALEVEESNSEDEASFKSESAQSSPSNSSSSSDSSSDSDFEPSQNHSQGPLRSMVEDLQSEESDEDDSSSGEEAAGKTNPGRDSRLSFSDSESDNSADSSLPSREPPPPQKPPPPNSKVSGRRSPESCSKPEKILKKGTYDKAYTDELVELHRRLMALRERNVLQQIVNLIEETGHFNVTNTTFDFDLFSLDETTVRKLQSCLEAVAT
Outline: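 MV4-11 cells treated 24 h at 37° C, 5% CO2 with 1000, 100 and 10 nM compound (0.1% DMSO final). MLLT1 quantified by automated capillary chemiluminescent immunodetection; band peak area expressed as % degradation relative to DMSO control.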

MV4-11 cells = assay: MV4-11 cellular proliferative assay, Assay Format B (CTG 2.0, 168 h); format: cell-based; settings: Homo sapiens, 168 h (7 days), CTG 2.0, read-out: IC50 (MV4-11 cellular proliferative assay, Assay format B)
Outline: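 MV4-11 cells seeded overnight in IMDM + 10% FBS, then exposed to 10-point, 3-fold dilutions from 1 uM or 100 nM top concentration (0.3% DMSO final) for 168 h at 37 °C. CTG 2.0 luminescence read; % viability vs DMSO control fitted by four-parameter logistic regression.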

SMILES | MLLT1% Degradation @ 0.01 μM (MLLT1) | MLLT1% Degradation @ 0.1 μM (MLLT1) | MLLT1% Degradation @ 1 μM (MLLT1) | IC50 (MV4-11 cells)
CN1CCC[C@@H]1c1cc2cnc(NC(=O)c3ccc(OCCC4CCN(c5cccc6c5CN(C5CCC(=O)NC5=O)C6=O)CC4)nc3)cc2[nH]1 (stereo partly drawn) [Example 158, 6-(2-(1-(2-(2,6-dioxopiperidin-3-yl)-1-oxoisoindolin-4-yl)piperidin-4-yl)ethoxy)-N-(2-((R)-1-methylpyrrolidin-2-yl)-1H-pyrrolo[3,2-c]pyridin-6-yl)nicotinamide] | A (Category A: A ≥ 75% degradation) | A (Category A: A ≥ 75% degradation) | A (Category A: A ≥ 75% degradation) | ≤ 100 nM
CN1CCC[C@@H]1c1cc2cnc(NC(=O)c3ccc(OCC4CCN(c5cccc6c5CN(C5CCC(=O)NC5=O)C6=O)CC4)cc3)cc2[nH]1 (stereo partly drawn) [Example 159, 4-((1-(2-(2,6-dioxopiperidin-3-yl)-1-oxoisoindolin-4-yl)piperidin-4-yl)methoxy)-N-(2-((R)-1-methylpyrrolidin-2-yl)-1H-pyrrolo[3,2-c]pyridin-6-yl)benzamide] | A (Category A: A ≥ 75% degradation) | A (Category A: A ≥ 75% degradation) | A (Category A: A ≥ 75% degradation) | ≤ 100 nM
C[C@@H]1CN(CC2CCN(c3cccc4c3CN(C3CCC(=O)NC3=O)C4=O)CC2)CCN1c1ccc(C(=O)Nc2cc3[nH]c([C@H]4CCCN4C)cc3cn2)cn1 (stereo partly drawn) [Example 163, 6-((2R)-4-((1-(2-(2,6-dioxopiperidin-3-yl)-1-oxoisoindolin-4-yl)piperidin-4-yl)methyl)-2-methylpiperazin-1-yl)-N-(2-((R)-1-methylpyrrolidin-2-yl)-1H-pyrrolo[3,2-c]pyridin-6-yl)nicotinamide] | A (Category A: A ≥ 75% degradation) | A (Category A: A ≥ 75% degradation) | A (Category A: A ≥ 75% degradation) | ≤ 100 nM
CN1CCC[C@@H]1c1cc2cnc(NC(=O)c3ccc(OCCN4CCC5(CC4)CCN(c4ccc6c(c4)CN(C4CCC(=O)NC4=O)C6=O)CC5)cc3)cc2[nH]1 (stereo partly drawn) [Example 164, 4-(2-(9-(2-(2,6-dioxopiperidin-3-yl)-1-oxoisoindolin-5-yl)-3,9-diazaspiro[5.5]undecan-3-yl)ethoxy)-N-(2-((R)-1-methylpyrrolidin-2-yl)-1H-pyrrolo[3,2-c]pyridin-6-yl)benzamide] | A (Category A: A ≥ 75% degradation) | A (Category A: A ≥ 75% degradation) | A (Category A: A ≥ 75% degradation) | ≤ 100 nM
CN1CCC[C@@H]1c1cc2cnc(NC(=O)c3ccc(OCCN4CCC5(CC4)CCN(c4cccc6c4CN(C4CCC(=O)NC4=O)C6=O)CC5)cc3)cc2[nH]1 (stereo partly drawn) [Example 165, 4-(2-(9-(2-(2,6-dioxopiperidin-3-yl)-1-oxoisoindolin-4-yl)-3,9-diazaspiro[5.5]undecan-3-yl)ethoxy)-N-(2-((R)-1-methylpyrrolidin-2-yl)-1H-pyrrolo[3,2-c]pyridin-6-yl)benzamide] | A (Category A: A ≥ 75% degradation) | A (Category A: A ≥ 75% degradation) | A (Category A: A ≥ 75% degradation) | ≤ 100 nM
CN1CCC[C@@H]1c1cc2cnc(NC(=O)c3ccc(C4CCN(CC5CCN(c6cccc7c6CN(C6CCC(=O)NC6=O)C7=O)CC5)CC4)cc3)cc2[nH]1 (stereo partly drawn) [Example 167, 4-(1-((1-(2-(2,6-dioxopiperidin-3-yl)-1-oxoisoindolin-4-yl)piperidin-4-yl)methyl)piperidin-4-yl)-N-(2-((R)-1-methylpyrrolidin-2-yl)-1H-pyrrolo[3,2-c]pyridin-6-yl)benzamide] | A (Category A: A ≥ 75% degradation) | A (Category A: A ≥ 75% degradation) | A (Category A: A ≥ 75% degradation) | ≤ 100 nM
CN1CCC[C@@H]1c1cc2cnc(NC(=O)c3ccc(N4CCC(CN5CCN(c6cccc7c6CN(C6CCC(=O)NC6=O)C7=O)CC5)CC4)nc3)cc2[nH]1 (stereo partly drawn) [Example 168, 6-(4-((4-(2-(2,6-dioxopiperidin-3-yl)-1-oxoisoindolin-4-yl)piperazin-1-yl)methyl)piperidin-1-yl)-N-(2-((R)-1-methylpyrrolidin-2-yl)-1H-pyrrolo[3,2-c]pyridin-6-yl)nicotinamide] | A (Category A: A ≥ 75% degradation) | A (Category A: A ≥ 75% degradation) | A (Category A: A ≥ 75% degradation) | ≤ 100 nM
CN1CCC[C@@H]1c1cc2cnc(NC(=O)c3ccc(N4CCN(CC5CCN(c6cccc7c6CN(C6CCC(=O)NC6=O)C7=O)CC5)CC4)nc3)cc2[nH]1 (stereo partly drawn) [Example 169, 6-(4-((1-(2-(2,6-dioxopiperidin-3-yl)-1-oxoisoindolin-4-yl)piperidin-4-yl)methyl)piperazin-1-yl)-N-(2-((R)-1-methylpyrrolidin-2-yl)-1H-pyrrolo[3,2-c]pyridin-6-yl)nicotinamide] | B (Category B: 50% ≤ B < 75% degradation) | A (Category A: A ≥ 75% degradation) | A (Category A: A ≥ 75% degradation) | ≤ 100 nM
CN1CCC[C@@H]1c1cc2cnc(NC(=O)c3ccc(N4CCN(CC5CCN(c6ccc7c(c6)n(C)c(=O)n7C6CCC(=O)NC6=O)CC5)CC4)cc3)cc2[nH]1 (stereo partly drawn) [Example 170, 4-(4-((1-(1-(2,6-dioxopiperidin-3-yl)-3-methyl-2-oxo-2,3-dihydro-1H-benzo[d]imidazol-5-yl)piperidin-4-yl)methyl)piperazin-1-yl)-N-(2-((R)-1-methylpyrrolidin-2-yl)-1H-pyrrolo[3,2-c]pyridin-6-yl)benzamide] | A (Category A: A ≥ 75% degradation) | A (Category A: A ≥ 75% degradation) | A (Category A: A ≥ 75% degradation) | ≤ 100 nM
CN1CCC[C@@H]1c1cc2cnc(NC(=O)c3ccc(CCC4CCN(c5cccc6c5CN(C5CCC(=O)NC5=O)C6=O)CC4)cc3)cc2[nH]1 (stereo partly drawn) [Example 177, 4-(2-(1-(2-(2,6-dioxopiperidin-3-yl)-1-oxoisoindolin-4-yl)piperidin-4-yl)ethyl)-N-(2-((R)-1-methylpyrrolidin-2-yl)-1H-pyrrolo[3,2-c]pyridin-6-yl)benzamide] | A (Category A: A ≥ 75% degradation) | A (Category A: A ≥ 75% degradation) | A (Category A: A ≥ 75% degradation) | ≤ 100 nM
CN1CCC[C@@H]1c1cc2cnc(NC(=O)c3cnc(N4CCC(C#Cc5cccc6c5CN(C5CCC(=O)NC5=O)C6=O)CC4)cn3)cc2[nH]1 (stereo partly drawn) [Example 186, 5-(4-((2-(2,6-dioxopiperidin-3-yl)-1-oxoisoindolin-4-yl)ethynyl)piperidin-1-yl)-N-(2-((R)-1-methylpyrrolidin-2-yl)-1H-pyrrolo[3,2-c]pyridin-6-yl)pyrazine-2-carboxamide] | B (Category B: 50% ≤ B < 75% degradation) | A (Category A: A ≥ 75% degradation) | B (Category B: 50% ≤ B < 75% degradation) | ≤ 100 nM
CN1CCC[C@@H]1c1[nH]c2cc(NC(=O)c3ccc(OCCC4CCN(c5cccc6c5CN(C5CCC(=O)NC5=O)C6=O)CC4)cc3F)ncc2c1Cl (stereo partly drawn) [Example 190, N-(3-chloro-2-((R)-1-methylpyrrolidin-2-yl)-1H-pyrrolo[3,2-c]pyridin-6-yl)-4-(2-(1-(2-(2,6-dioxopiperidin-3-yl)-1-oxoisoindolin-4-yl)piperidin-4-yl)ethoxy)-2-fluorobenzamide] | B (Category B: 50% ≤ B < 75% degradation) | A (Category A: A ≥ 75% degradation) | A (Category A: A ≥ 75% degradation) | ≤ 100 nM
CN1CCC[C@@H]1c1[nH]c2cc(NC(=O)c3ccc(N4CCC(OCC5CCN(c6cccc7c6CN(C6CCC(=O)NC6=O)C7=O)CC5)CC4)nc3)ncc2c1Cl (stereo partly drawn) [Example 191, N-(3-chloro-2-((R)-1-methylpyrrolidin-2-yl)-1H-pyrrolo[3,2-c]pyridin-6-yl)-6-(4-((1-(2-(2,6-dioxopiperidin-3-yl)-1-oxoisoindolin-4-yl)piperidin-4-yl)methoxy)piperidin-1-yl)nicotinamide] | A (Category A: A ≥ 75% degradation) | A (Category A: A ≥ 75% degradation) | A (Category A: A ≥ 75% degradation) | ≤ 100 nM
